We go through two compounds from PMC8623418, “Novel Multitarget Hydroxamic Acids with a Natural Origin CAP Group against Alzheimer’s Disease: Synthesis, Docking and Biological Evaluation” (Pharmaceutics, 2021).

Molecules are shown by their SMILES.

In general, melting point refers to the temperature of the solid-liquid transition. Broadly, the IC50 is the concentration at which inhibition is half-maximal. Higher therefore signals lower potency. The term half-life denotes the time in which the quantity being followed falls by half.

For data set [1], the system named is 5xFAD transgenic mice. Kind of data set: Ex vivo total glutathione in mouse brain homogenate. As to conditions: post-mortem, versus 5xFAD mice. The procedure:
(§1) At the end of the in vivo series of experiments, the animals’ brains were sampled for further measurement of the lipid peroxidation level, as well as glutathione content in mouse brain homogenates. A synaptosomal p2 fraction containing mitochondria was also isolated to investigate the bioenergetic characteristics of organelles.
The performance of the glutathione system of the cell’s own antioxidant defense was evaluated using a commercially available kit (Glutathione Assay Kit, Sigma Aldrich, Saint Louis, MO, USA) in accordance with the protocol provided by the manufacturer. The total glutathione level was determined by spectrophotometric measurement at a wavelength of 412 nm by the amount of 2-nitro-5-thiobenzoic acid, a product formed during the reduction of GSH 5,5′-dithiobis-(2-nitrobenzoic acid).
The glutathione content was estimated using the method based on measurement of the absorption of a colored compound formed during the colorimetric reaction of DTNB with SH groups of glutathione. […] Therefore, the level of lipid peroxidation of mouse brain homogenates was also measured by its final product, malondialdehyde. […]

The next data set has as its system SH-SY5Y cells. Kind of data set: MTT cell viability, SH-SY5Y. As to conditions: Homo sapiens, MTT test. It counts as cell-based. The procedure:
The effect of the hydroxamic acids on the viability of cells obtained from human embryonic kidneys, HEK 293, as well as the native form of human neuroblastoma, SH-SY5Y, was evaluated in the MTT test. Using a multifunctional flatbed analyzer, Cytation™3 (BioTek Instruments, Inc., Winooski, VT, USA), the optical density was determined at a wavelength of 530 nm. Based on the dose-dependent curves, the concentration values leading to 50% inhibition of cell population growth (IC50) were calculated.
Due to the fact that most compounds of the class of hydroxamic acids have high cytotoxic activity and are mainly used as anticancer drugs, their use as neuroprotective drugs is limited. Since the goal of our work was to search for agents for the pharmacological correction of neurodegenerative diseases, a necessary part of the biological activity study of the synthesized hydroxamic acids was to determine their effect on the survival of cell cultures. In our work, we used neuron-like neuroblastoma cells SH-SY5Y and a healthy cell line isolated from the human embryonic kidney, HEK 293.
Background: Tetrazolium assays rely on reduction of a dye to a coloured formazan, in cell work by metabolically active cells.

Data set [2] deals with 5xFAD transgenic mice. The experiment in a line: Ex vivo electron transport chain activity of brain mitochondria (Seahorse OCR). It counts as in vivo. As to conditions: brain mitochondrial p2 fraction of treated 5xFAD mice. The procedure: as §1
The study on the effect of the electron transport chain complexes was carried out on a preparation of the mitochondrial p2 fraction of the brain (10 µg/well) using the Agilent Seahorse XF96e Analyzer (Seahorse Bioscience, Santa Clara, CA, USA) to measure the rate of oxygen uptake under the action of modulators. For this purpose, the activators of the electron transport chain complex I-glutamate/malate, the inhibitor of complex I, rotenone (2 µM), the substrate of complex II, potassium succinate ([…]), the inhibitor of complex III, antimycin A, and the substrates of complex IV, ascorbate, were used/TMPD (0.5 µM).
To evaluate mitochondrial functioning, we determined the functioning of the respiratory chain complexes using Seahorse Bioanalyzer. […] However, the oxygen consumption rate (OCR) was increased in transgenic animals treated with the test compounds.

Data set [3] in a line: Stability in rat blood plasma, LC–MS/MS. Type of data set: in vitro ADME. The settings on record: 1000 ng/mL spike. The procedure: EDTA-stabilized rat blood plasma was used in the study. The spikes were prepared by adding 100 µL of the solution of a compound to 900 µL of plasma, followed by continuous shaking. A 100 µL aliquot of a sample was taken and mixed with 900 µL of MeOH, shaken for 15 min, and centrifuged. Then, 100 µLc of the supernatant was transferred to a vial insert and analyzed.
HPLC–MS/MS analyses were performed using a Shimadzu LC-20AD Prominence chromatograph equipped with a SIL-20AC cooled autosampler and a gradient pump. A column filled with a reversed-phase ProntoSil 120-AQ C18 sorbent (Econova, Novosibirsk) was used. Water with the addition of 0.1% HCOOH was used as mobile phase A, and methanol containing 0.1% HCOOH was used as mobile phase B. The gradient was as follows: 0 min—5% B; 1 min—5% B; 2 min—95% B; 5 min—100% B; the flow rate was 300 μL/min; the injection volume was 10 μL. The column was then equilibrated for the following analysis. […]
To study the stability of the compounds, their solutions (spikes) in rat blood plasma were prepared with a concentration of 1000 ng/mL. […] Aliquots of the spike with a volume of 100 μL were taken after 5, 15, 30, 60, 120, 180, and 270 min, after which the sample was mixed with MeOH, shaken for 10 min, then centrifuged and analyzed with LC–MS/MS.

`O=C(CCCCCCC(=O)NC1C2CC3CC(C2)CC1C3)NO` (centres unmarked) [compound 15, N^1-(Adamant-2-yl)-N^8-Hydroxyoctanediamide] came in with a melting point of 133.6 °C. Moreover, in the data set on 5xFAD transgenic mice [1], the “Total glutathione content in brain” value is “tended to recover this parameter”. This compound also had a half-inhibitory concentration (IC50) in the data set on SH-SY5Y cells of 47.6 ± 7.19 µM. Also, the “Oxygen consumption rate (OCR) after injection of succinate” value in the data set on 5xFAD transgenic mice [2] (complex II) is listed as 251.00 ± 10.45 pmol/min. Also, the “Oxygen consumption rate (OCR) after injection of ascorbate” value in the data set on 5xFAD transgenic mice [2] (complex IV) was found to be 422.67 ± 14.61 pmol/min. The half-life at 1000 ng/mL in data set [3] (rat, EDTA-stabilized rat blood plasma, estimated from the graph) is 60 to 70 min.
`O=C(/C=C/c1ccc(C(=O)NO)cc1)NC1C2CC3CC(C2)CC1C3` (centres unmarked) [compound 25, 4-((E)-3-((-Adamantan-2-yl)amino)-3-Oxoprop-1-en-1-yl)-N-Hydroxybenzamide] came in with an IC50 in the data set on SH-SY5Y cells of 59.51 ± 0.42 µM. For the same compound, in data set [3], the “Time stable in rat blood plasma” value is no less than 4.5 h.
